Earlier results in patent publication EP0687181B1, “USE OF THYMOSIN FOR TREATING HEPATITIS C IN NON-RESPONDERS TO INTERFERON TREATMENT” (ALPHA 1 BIOMEDICALS, INC., priority 1993, dated 2001).
Where no end group is shown, it is not given here.

Legend:
HCV-related diseases = settings: in vivo
influenza vaccine = settings: drug recipients

**Q.** Which “effect on progression of HCV-related diseases” value (HCV-related diseases) does the source give for Nc1nc2c(ncn2COCCO)c(=O)[nH]1 [acyclovir] here?
**A.** Its value is “ineffective”.

**Q.** Which toxicity (influenza vaccine) does the source give for “Ac-SDAAVDTSSEITTKDLKEKKEVVEEAEN [Thymosin α-1]” here?
**A.** Its toxicity is “No clinical or biochemical toxicity”.
